Assays:
[1] = system: MCF10A KRAS-variant+/- (MT) cell lines; test: Anchorage independent growth (soft agar colony formation) as measure of transformation; assay type: cell-based, human; conditions: for level of transformation in anchorage independent growth assay: KRAS-variant (L1 and L2) versus parental (WT) MCF10A lines, comparison of anti-estrogen treatments and estrogen; for fold increased colony formation rate: KRAS-variant MCF10A lines, grown without EGF
Description: Anchorage independent growth was assessed as described previously (Sweasy et al. (2005) PNAS 102:14350-5). After thawing and growing cells until confluence in EGF supplemented media (20 ng/ml), cells were plated into conditions of study for two passages. For estrogen depletion experiments phenol red free DMEM/F12 medium (Invitrogen) and 5% charcoal-stripped horse serum (Thermo Fisher) were used, and Tamoxifen or estrogen was added to a final concentration of 1 μM after the first passage, as appropriate. To plate, 100 μl of MCF10A (WT) or (MT) cells at a density of 400,000 cells/ml were mixed with 2 ml of media for the condition under study containing 2 ml 0.7% noble agar (USB). 1 ml of the cell mixture was added to 1 ml of 1.0% noble agar in a well of a 6-well dish. Cells were fed twice weekly by layering on a 50:50 mixture of media with 0.7% agar for 2 weeks, followed by only media for two-three additional weeks. The number of colonies present in each of ten microscope fields per well from a total of 3 wells per experiment was counted to evaluate transformation and is reported as an average of the 2 separate MT lines.
Next, WT and MT lines were plated in soft agar to test for transformation, as measured by anchorage independent growth. […] The impact of estrogen withdrawal on this transformation was next evaluated by the use of charcoal stripped serum, tamoxifen, or a combination of the two. […] These findings biologically confirm wide spread transformation in normal breast epithelium with acute estrogen withdrawal in breast cells with the KRAS-variant.
Next, different forms of estrogen inhibitors were tested to determine their effects on transformation in the presence of the KRAS-variant. Tamoxifen (ER antagonist in breast), anastrozole (aromatase inhibitor, inhibiting estrogen synthesis), and fulvestrant (a complete ER antagonist) were administered to parental (WT) or two KRAS-variant (L1 and L2) MCF10A cell lines and anchorage independent growth was assessed using the colony formation assay described above.

[2] = post-menopausal use of estrogen alone, median follow up 11.8 years; CI 0.62-0.95, p 0.02; cited from earlier work

Row | Molecule | colonies formed relative to the anastrozole or fulvestrant treatments ([1]; KRAS-variant (L1 and L2) MCF10A lines, FIG. 5) [times] | level of transformation in anchorage independent growth assay ([1]; FIG. 5) | fold increased colony formation rate ([1]; Tamoxifen combined with charcoal stripped media) [fold] | fold increased colony formation rate ([1]; in the presence of Tamoxifen (1 μM final)) [fold] | breast cancer incidence versus placebo, HR [2] | level of transformation in anchorage independent growth assay ([1]; FIG. 5, listed as Estrogen) | transformation (colony formation) after return of estrogen to charcoal-stripped media ([1]; KRAS-variant MT cell lines, charcoal-stripped media, estrogen 1 μM, p=0.018, FIG. 4)
1 | CC/C(=C(\c1ccccc1)c1ccc(OCCN(C)C)cc1)c1ccccc1 [Tamoxifen] | ~10 | highest level of transformation | 7.9 | 2 |  |  | 
2 | estrogen |  | prevented transformation |  |  | 0.77 | prevents transformation | decreased transformation

Source: patent publication US20190307770A1, “METHODS FOR TREATING OR PREVENTING CANCER IN A KRAS-VARIANT PATIENT AND FOR […] OF […] PRIMARY BREAST TUMORS” (MIRADX, priority 2014, published 2019)
